From US9920075B2, “Triazolopyridine and triazolopyrimidine inhibitors of myeloperoxidase” (BRISTOL-MYERS SQUIBB COMPANY, priority 2014, dated 2018)
“And” between values parts separate entries of the source, which are not always exact repeats. Equal values may be shown once.

What follows are compounds tested against T1, myeloperoxidase (MPO) (Homo sapiens, UniProt P05164) (assay: MPO peroxidation assay (Amplex Red assay)). Settings: MPO peroxidation (Amplex Red), ranges given; read-out: MPO peroxidation assay IC50 values (binned).
T1 sequence (P05164 49-745): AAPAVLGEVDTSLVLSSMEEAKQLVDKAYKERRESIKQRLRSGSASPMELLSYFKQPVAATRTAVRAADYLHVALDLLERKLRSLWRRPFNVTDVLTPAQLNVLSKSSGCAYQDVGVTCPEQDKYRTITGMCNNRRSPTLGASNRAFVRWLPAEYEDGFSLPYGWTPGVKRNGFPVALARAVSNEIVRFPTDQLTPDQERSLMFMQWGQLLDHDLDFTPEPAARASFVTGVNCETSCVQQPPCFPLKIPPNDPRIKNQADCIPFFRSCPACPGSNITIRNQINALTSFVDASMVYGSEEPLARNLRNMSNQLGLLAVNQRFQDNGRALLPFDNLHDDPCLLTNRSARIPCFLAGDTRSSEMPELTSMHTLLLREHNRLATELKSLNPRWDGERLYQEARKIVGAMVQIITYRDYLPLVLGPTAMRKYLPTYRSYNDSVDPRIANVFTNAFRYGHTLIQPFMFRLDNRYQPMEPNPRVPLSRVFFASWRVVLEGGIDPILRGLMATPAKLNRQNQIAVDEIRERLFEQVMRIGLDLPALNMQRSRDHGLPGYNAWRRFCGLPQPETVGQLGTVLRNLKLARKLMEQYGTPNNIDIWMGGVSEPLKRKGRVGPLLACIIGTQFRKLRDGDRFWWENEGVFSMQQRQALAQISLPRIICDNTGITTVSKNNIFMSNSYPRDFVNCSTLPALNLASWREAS
Assay type: biochemical
Method: MPO Peroxidation Assay (Amplex Red Assay)
MPO peroxidation activity was measured in 100 mM KPi (pH 7.4) by utilizing the non-fluorescent reagent Amplex Red (Invitrogen Cat. #A12222) which can be oxidized to the highly fluorescent resorufin. Amplex Red is oxidized by the peroxidase action of MPO to resorufin. […] Enzyme and compound were preincubated for ten minutes at room temperature.
After the ten minute preincubation, 25 μL of an Amplex Red mixture containing 200 μM Amplex Red and 10 mM H2O2 was added to the plate.
IC50 values were calculated by determining the slope of the linear portion of the kinetic trace (180-540 secs), and using that calculated slope to determine % inhibition occurring at each concentration of inhibitor using the following equation:
[formula] where A=minimal Y value (activity level of inhibited sample), B=maximal Y value (activity level of uninhibited sample), C=Log IC50, D=Hill Slope, x=concentration of inhibitor. MPO Chlorination Assay (APF Assay)

Q: Which IC50 does the source give for Cc1nn(C2CCC(C)C2)nc1COc1cc(N)nc2[nH]nnc12 (mixture of isomers) [Example 72, 7-((5-Methyl-2-(3-methylcyclopentyl)-2H-1,2,3-triazol-4-yl)methoxy)-3H-[1,2,3]triazolo[4,5-b]pyridin-5-amine] here?
A: ≤ 0.06 µM

Q: With Nc1cc(OCc2ccc3c(c2)OCO3)c2nn[nH]c2n1 [Example 1, 7-(Benzo[d][1,3]dioxol-5-ylmethoxy)-3H-[1,2,3]triazolo[4,5-b]pyridin-5-amine] as the compound, how does the IC50 read?
A: ≤ 0.06 µM

Q: How did the IC50 turn out when Nc1cc(OCc2cccc3c2OCCO3)c2nn[nH]c2n1 [Example 2, 7-((2,3-Dihydrobenzo[b][1,4]dioxin-5-yl)methoxy)-3H-[1,2,3]triazolo[4,5-b]pyridin-5-amine] was run?
A: ≤ 0.06 µM

Q: How did the IC50 turn out when Nc1cc(OCc2cccc3c2OC(F)(F)O3)c2nn[nH]c2n1 [Example 3, 7-((2,2-Difluorobenzo[d][1,3]dioxol-4-yl)methoxy)-3H-[1,2,3]triazolo[4,5-b]pyridin-5-amine] was run?
A: ≤ 0.06 µM

Q: For Nc1cc(OCc2cccc(-c3cccc(F)c3)n2)c2nn[nH]c2n1 [Example 5, 7-((6-(3-Fluorophenyl)pyridin-2-yl)methoxy)-3H-[1,2,3]triazolo[4,5-b]pyridin-5-amine], which IC50 is on record?
A: 0.06 to 0.15 µM

Q: With Nc1cc(OCc2cccc3cccnc23)c2nn[nH]c2n1 [Example 7, 7-(Quinolin-8-ylmethoxy)-3H-[1,2,3]triazolo[4,5-b]pyridin-5-amine] as the compound, how does the IC50 read?
A: ≤ 0.06 µM

Q: Cn1ncc2cccc(COc3cc(N)nc4[nH]nnc34)c21 [Example 8, 7-((1-Methyl-1H-indazol-7-yl)methoxy)-3H-[1,2,3]triazolo[4,5-b]pyridin-5-amine] was tested. Which IC50 did it give?
A: ≤ 0.06 µM

Q: For Cn1ncc2ccc(COc3cc(N)nc4[nH]nnc34)cc21 [Example 9, 7-((1-Methyl-1H-indazol-6-yl)methoxy)-3H-[1,2,3]triazolo[4,5-b]pyridin-5-amine], which IC50 is on record?
A: ≤ 0.06 µM

Q: Which IC50 does the source give for Cc1nn(-c2ccc(F)cc2)nc1COc1cc(N)nc2[nH]nnc12 [Example 10, 7-((2-(4-Fluorophenyl)-5-methyl-2H-1,2,3-triazol-4-yl)methoxy)-3H-[1,2,3]triazolo[4,5-b]pyridin-5-amine] here?
A: ≤ 0.06 µM

Q: Nc1cc(OCc2cccc(C(F)(F)F)n2)c2nn[nH]c2n1 [Example 16, 7-((6-(Trifluoromethyl)pyridin-2-yl)methoxy)-3H-[1,2,3]triazolo[4,5-b]pyridin-5-amine] was tested. Which IC50 did it give?
A: ≤ 0.06 µM

Q: Cn1nc(COc2cc(N)nc3[nH]nnc23)cc1-c1ccccc1 [Example 17, 7-((1-Methyl-5-phenyl-1H-pyrazol-3-yl)methoxy)-3H-[1,2,3]triazolo[4,5-b]pyridin-5-amine] was tested. Which IC50 did it give?
A: ≤ 0.06 µM

Q: For Cn1nc(-c2ccccc2)cc1COc1cc(N)nc2[nH]nnc12 [Example 18, 7-((1-Methyl-3-phenyl-1H-pyrazol-5-yl)methoxy)-3H-[1,2,3]triazolo[4,5-b]pyridin-5-amine], which IC50 is on record?
A: ≤ 0.06 µM

Q: Which IC50 does the source give for CCn1nc(C(F)(F)F)cc1COc1cc(N)nc2[nH]nnc12 [Example 19, 7-((1-Ethyl-3-(trifluoromethyl)-1H-pyrazol-5-yl)methoxy)-3H-[1,2,3]triazolo[4,5-b]pyridin-5-amine] here?
A: ≤ 0.06 µM

Q: With Cn1nc(C2CC2)cc1COc1cc(N)nc2[nH]nnc12 [Example 20, 7-((3-Cyclopropyl-1-methyl-1H-pyrazol-5-yl)methoxy)-3H-[1,2,3]triazolo [4,5-b]pyridin-5-amine] as the compound, how does the IC50 read?
A: ≤ 0.06 µM

Q: For Nc1cc(OCc2nc(-c3ccccc3)no2)c2nn[nH]c2n1 [Example 24, 7-((3-Phenyl-1,2,4-oxadiazol-5-yl)methoxy)-3H-[1,2,3]triazolo[4,5-b]pyridin-5-amine], which IC50 is on record?
A: 0.06 to 0.15 µM

Q: How did the IC50 turn out when Nc1cc(OCc2cnc(-c3ccccc3)s2)c2nn[nH]c2n1 [Example 26, 7-((2-Phenylthiazol-5-yl)methoxy)-3H-[1,2,3]triazolo[4,5-b]pyridin-5-amine] was run?
A: 0.15 to 1 µM

Q: Cc1oc(-c2cc(F)cc(F)c2)nc1COc1cc(N)nc2[nH]nnc12 [Example 27, 7-((2-(3,5-Difluorophenyl)-5-methyloxazol-4-yl)methoxy)-3H-[1,2,3]triazolo[4,5-b]pyridin-5-amine] was tested. Which IC50 did it give?
A: 0.15 to 1 µM

Q: How did the IC50 turn out when Nc1cc(OCc2nnc3cccc(Cl)n23)c2nn[nH]c2n1 [Example 29, 7-((5-Chloro-[1,2,4]triazolo[4,3-a]pyridin-3-yl)methoxy)-3H-[1,2,3]triazolo [4,5-b]pyridin-5-amine] was run?
A: 0.06 to 0.15 µM

Q: Which IC50 does the source give for Nc1cc(OCc2cnn(-c3ccccn3)c2)c2nn[nH]c2n1 [Example 30, 7-((1-(Pyridin-2-yl)-1H-pyrazol-4-yl)methoxy)-3H-[1,2,3]triazolo[4,5-b]pyridin-5-amine] here?
A: 0.06 to 0.15 µM

Q: With Cc1nc(-c2ccc(Cl)cc2)ncc1COc1cc(N)nc2[nH]nnc12 [Example 31, 7-((2-(4-Chlorophenyl)-4-methylpyrimidin-5-yl)methoxy)-3H-[1,2,3]triazolo[4,5-b]pyridin-5-amine] as the compound, how does the IC50 read?
A: 0.15 to 1 µM

Q: How did the IC50 turn out when Cn1cnc2cccc(COc3cc(N)nc4[nH]nnc34)c21 [Example 36, 7-((1-Methyl-1H-benzo[d]imidazol-7-yl)methoxy)-3H-[1,2,3]triazolo[4,5-b]pyridin-5-amine] was run?
A: 0.15 to 1 µM

Q: With Nc1cc(OCc2cccc3c2ncn3Cc2ccccc2)c2nn[nH]c2n1 [Example 37, 7-((1-Benzyl-1H-benzo[d]imidazol-4-yl)methoxy)-3H-[1,2,3]triazolo[4,5-b]pyridin-5-amine] as the compound, how does the IC50 read?
A: 0.15 to 1 µM

Q: For Nc1cc(OCc2cccc3c2nnn3Cc2ccccc2)c2nn[nH]c2n1 [Example 38, 7-((1-Benzyl-1H-benzo[d][1,2,3]triazol-4-yl)methoxy)-3H-[1,2,3]triazolo [4,5-b]pyridin-5-amine], which IC50 is on record?
A: 0.06 to 0.15 µM and 0.15 to 1 µM

Q: Cc1oc(-c2ccc(Cl)cc2Cl)nc1COc1cc(N)nc2[nH]nnc12 [Example 39, 7-((2-(2,4-Dichlorophenyl)-5-methyloxazol-4-yl)methoxy)-3H-[1,2,3]triazolo[4,5-b]pyridin-5-amine] was tested. Which IC50 did it give?
A: ≤ 0.06 µM

Q: Nc1cc(OCc2cn3nc(Cl)ccc3n2)c2nn[nH]c2n1 [Example 40, 7-((6-Chloroimidazo[1,2-b]pyridazin-2-yl)methoxy)-3H-[1,2,3]triazolo[4,5-b]pyridin-5-amine] was tested. Which IC50 did it give?
A: 0.15 to 1 µM

Q: Nc1cc(OCc2csc(-c3ccccc3)n2)c2nn[nH]c2n1 [Example 42, 7-((2-Phenylthiazol-4-yl)methoxy)-3H-[1,2,3]triazolo[4,5-b]pyridin-5-amine] was tested. Which IC50 did it give?
A: 0.06 to 0.15 µM

Q: Which IC50 does the source give for N#Cc1ccccc1-c1cc(COc2cc(N)nc3[nH]nnc23)on1 [Example 45, 2-(5-((5-Amino-3H-[1,2,3]triazolo[4,5-b]pyridin-7-yloxy)methyl)isoxazol-3-yl)benzonitrile] here?
A: ≤ 0.06 µM

Q: Which IC50 does the source give for Cc1nc(-c2ccc(Cl)cc2)sc1COc1cc(N)nc2[nH]nnc12 [Example 49, 7-((2-(4-Chlorophenyl)-4-methylthiazol-5-yl)methoxy)-3H-[1,2,3]triazolo [4,5-b]pyridin-5-amine] here?
A: ≤ 0.06 µM

Q: Which IC50 does the source give for Nc1cc(OCc2nn(-c3cccc(Cl)c3)c3c2CCNC3=O)c2nn[nH]c2n1 [Example 51, 3-(((5-Amino-3H-[1,2,3]triazolo[4,5-b]pyridin-7-yl)oxy)methyl)-1-(3-chlorophenyl)-5,6-dihydro-1H-pyrazolo[3,4-c]pyridin-7(4H)-one] here?
A: 0.06 to 0.15 µM

Q: With Cc1nc(-c2ccccc2)oc1COc1cc(N)nc2[nH]nnc12 [Example 54, 7-((4-Methyl-2-phenyloxazol-5-yl)methoxy)-3H-[1,2,3]triazolo[4,5-b]pyridin-5-amine] as the compound, how does the IC50 read?
A: 0.06 to 0.15 µM

Q: COCc1nn(-c2ccccc2)nc1COc1cc(N)nc2[nH]nnc12 [Example 56, 7-((5-(Methoxymethyl)-2-phenyl-2H-1,2,3-triazol-4-yl)methoxy)-3H-[1,2,3]triazolo[4,5-b]pyridin-5-amine] was tested. Which IC50 did it give?
A: 0.06 to 0.15 µM

Same assay, conditions: MPO peroxidation assay IC50 values (binned), MPO peroxidation (Amplex Red), ranges given

Q: Nc1cc(OCc2cn(-c3ccccc3)nn2)c2nn[nH]c2n1 [Example 4, 7-((1-Phenyl-1H-1,2,3-triazol-4-yl)methoxy)-3H-[1,2,3]triazolo[4,5-b]pyridin-5-amine] was tested. Which IC50 did it give?
A: 0.06 to 0.15 µM

Q: With Cc1nn(-c2ccccc2)nc1COc1cc(N)nc2[nH]nnc12 [Example 21, 7-((5-Methyl-2-phenyl-2H-1,2,3-triazol-4-yl)methoxy)-3H-[1,2,3]triazolo [4,5-b]pyridin-5-amine] as the compound, how does the IC50 read?
A: ≤ 0.06 µM

Q: Which IC50 does the source give for Nc1cc(OCc2ncc(-c3ccccc3)o2)c2nn[nH]c2n1 [Example 25, 7-((5-Phenyloxazol-2-yl)methoxy)-3H-[1,2,3]triazolo[4,5-b]pyridin-5-amine] here?
A: 0.06 to 0.15 µM
